According to US12331040B2 (Karyopharm Therapeutics Inc., priority 2013, dated 2025):
Where two headings read alike, the source gives them in different places.

Experiments:
Test in all cases: MTT cell proliferation assay
Assay type in all cases: cell-based
3T3 cells = conditions: Mus musculus, NIH3T3, approximately 64-72 hours incubation
Method in brief: (§1)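 Cytotoxicity was measured by MTT: OD490 of the solubilized formazan after roughly 4 h with MTT reagent, reported as mean percent inhibition relative to the negative control. Test compounds covered eight concentrations between 1 nM and 30 μM, added to 5,000–10,000 cells per well that had attached overnight.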

MS751 cells = conditions: Homo sapiens, MS751, MS751 cells, approximately 64-72 hours incubation
Method in brief: as §1

Z138 cells = conditions: Homo sapiens, Z-138, Z138 cells, approximately 64-72 hours incubation
Method in brief: as §1

[1] = read-out: MTT Assay IC50, MS-751
[2] = read-out: MTT Assay IC50, Z-138
[3] = read-out: MTT Assay IC50 MS-751

SMILES | IC50 (3T3 cells; read-out: MTT Assay IC50, 3T3) [nM] | IC50 (MS751 cells; [1]) [nM] | IC50 (Z138 cells; [2]) [nM] | IC50 (3T3 cells; read-out: MTT Assay IC50 3T3) [nM] | IC50 (MS751 cells; [3]) [nM] | IC50 (Z138 cells; read-out: MTT Assay IC50 Z-138) [nM]
Nc1ccc(/C=C/C(=O)NCc2cc3cc(-c4ccc(C(=S)N5CCC(F)(F)CC5)cc4F)cc(-c4ccc(F)cc4)c3o2)cn1 [Compound 758, (E)-3-(6-aminopyridin-3-yl)-N-((5-(4-(4,4-difluoropiperidine-1-carbonothioyl)-2-fluorophenyl)-7-(4-fluorophenyl)benzofuran-2-yl)methyl)acrylamide] | > 10000 | < 100 | < 100 | – | – | –
Nc1ccc(/C=C/C(=O)NCc2cc3cc(-c4cc(C(=O)N5CCOCC5)c(F)cn4)cc(C(F)(F)F)c3o2)cn1 [Compound 580, (E)-3-(6-aminopyridin-3-yl)-N-((5-(5-fluoro-4-(morpholine-4-carbonyl)pyridin-2-yl)-7-(trifluoromethyl)benzofuran-2-yl)methyl)acrylamide] | – | – | – | 5000 to 10000 | < 100 | < 100
Nc1ccc(/C=C/C(=O)NCc2cc3cc(-c4ccc(C(=O)N5CCC(F)(F)CC5)cc4F)cc(-c4ccc(F)c(Cl)c4)c3o2)cn1 [Compound 757, (E)-3-(6-aminopyridin-3-yl)-N-((7-(3-chloro-4-fluorophenyl)-5-(4-(4,4-difluoropiperidine-1-carbonyl)-2-fluorophenyl)benzofuran-2-yl)methyl)acrylamide] | > 10000 | < 100 | < 100 | – | – | –
Nc1ccc(/C=C/C(=O)NCc2cc3cc(-c4ccc(C(=O)N5CCC(F)(F)CC5)cc4)cc(Cl)c3o2)cn1 [Compound 596, (E)-3-(6-aminopyridin-3-yl)-N-((7-chloro-5-(4-(4,4-difluoropiperidine-1-carbonyl)phenyl)benzofuran-2-yl)methyl)acrylamide] | – | – | – | > 10000 | 100 to 5000 | 100 to 5000
Nc1ccc(/C=C/C(=O)NCc2cc3cc(-c4ccc(C(=O)N5CCCOCC5)cc4)cc(C(F)(F)F)c3o2)cn1 [Compound 574, (E)-N-((5-(4-(1,4-oxazepane-4-carbonyl)phenyl)-7-(trifluoromethyl)benzofuran-2-yl)methyl)-3-(6-aminopyridin-3-yl)acrylamide] | – | – | – | > 10000 | 100 to 5000 | 100 to 5000
Nc1ccc(/C=C/C(=O)NCc2cc3cc(-c4ccc(C(=O)N5CCC(F)(F)CC5)cc4)cc(-c4ccc(C(F)(F)F)cc4)c3o2)cn1 [Compound 733, (E)-3-(6-aminopyridin-3-yl)-N-((5-(4-(4,4-difluoropiperidine-1-carbonyl)phenyl)-7-(4-(trifluoromethyl)phenyl)benzofuran-2-yl)methyl)acrylamide] | > 10000 | 100 to 5000 | 100 to 5000 | – | – | –
O=C(/C=C/c1cccnc1)NCc1cc2cc(-c3ccc(C(=O)N4CCC(F)(F)CC4)cn3)cc(C(F)(F)F)c2o1 [Compound 671, (E)-N-((5-(5-(4,4-difluoropiperidine-1-carbonyl)pyridin-2-yl)-7-(trifluoromethyl)benzofuran-2-yl)methyl)-3-(pyridin-3-yl)acrylamide] | 100 to 5000 | 100 to 5000 | 100 to 5000 | – | – | –
Nc1ccc(/C=C/C(=O)NCc2cc3cc(-c4ccc(S(=O)(=O)N5CC[C@@H](F)C5)cc4)cc(Cl)c3o2)cn1 [Compound 527, (R,E)-3-(6-aminopyridin-3-yl)-N-((7-chloro-5-(4-(3-fluoropyrrolidin-1-ylsulfonyl)phenyl)benzofuran-2-yl)methyl)acrylamide] | – | – | – | > 10000 | 100 to 5000 | 100 to 5000
Nc1ccc(/C=C/C(=O)NCc2cc3c(C(F)(F)F)cc(-c4ccc(C(=O)N5CCC(F)(F)CC5)cn4)cc3o2)cn1 [Compound 762, (E)-3-(6-aminopyridin-3-yl)-N-((6-(5-(4,4-difluoropiperidine-1-carbonyl)pyridin-2-yl)-4-(trifluoromethyl)benzofuran-2-yl)methyl)acrylamide] | > 10000 | 5000 to 10000 | 100 to 5000 | – | – | –
Nc1ccc(/C=C/C(=O)NCc2cc3cc(-c4ccc(C(=O)N5CCC(O)(C(F)(F)F)CC5)cc4)cc(C(F)(F)F)c3o2)cn1 [Compound 609, (E)-3-(6-aminopyridin-3-yl)-N-((5-(4-(4-hydroxy-4-(trifluoromethyl)piperidine-1-carbonyl)phenyl)-7-(trifluoromethyl)benzofuran-2-yl)methyl)acrylamide] | – | – | – | > 10000 | 100 to 5000 | 100 to 5000
N#Cc1cccc(-c2cc(-c3ccc(C(=O)N4CCC(F)(F)CC4)cc3)cc3cc(CNC(=O)/C=C/c4ccc(N)nc4)oc23)c1 [Compound 732, (E)-3-(6-aminopyridin-3-yl)-N-((7-(3-cyanophenyl)-5-(4-(4,4-difluoropiperidine-1-carbonyl)phenyl)benzofuran-2-yl)methyl)acrylamide] | 100 to 5000 | < 100 | < 100 | – | – | –
Nc1ccc(/C=C/C(=O)NCc2cc3cc(-c4ccc(C(=O)N5CCC(C(F)(F)F)CC5)cc4)cc(C(F)(F)F)c3o2)cn1 [Compound 605, (E)-3-(6-aminopyridin-3-yl)-N-((7-(trifluoromethyl)-5-(4-(4-(trifluoromethyl)piperidine-1-carbonyl)phenyl)benzofuran-2-yl)methyl)acrylamide] | – | – | – | > 10000 | 100 to 5000 | 100 to 5000
Nc1ccc(/C=C/C(=O)NCCc2cc3cc(-c4ccc(C(=O)N5CCC(F)(F)CC5)cn4)cc(C(F)(F)F)c3o2)cn1 [Compound 690, (E)-3-(6-aminopyridin-3-yl)-N-(2-(5-(5-(4,4-difluoropiperidine-1-carbonyl)pyridin-2-yl)-7-(trifluoromethyl)benzofuran-2-yl)ethyl)acrylamide] | 100 to 5000 | < 100 | < 100 | – | – | –
Nc1ccc(/C=C/C(=O)NCc2cc3cc(-c4ccc(C(=O)N5CCC(F)(F)CC5)cc4)cc(-c4cccc(C(F)(F)F)c4)c3o2)cn1 [Compound 731, (E)-3-(6-aminopyridin-3-yl)-N-((5-(4-(4,4-difluoropiperidine-1-carbonyl)phenyl)-7-(3-(trifluoromethyl)phenyl)benzofuran-2-yl)methyl)acrylamide] | 100 to 5000 | 100 to 5000 | < 100 | – | – | –
COc1cc(-c2ncc(C(=O)N3CCNCC3)cn2)cc2cc(CNC(=O)/C=C/c3ccc(N)nc3)oc12 [Compound 639, (E)-3-(6-aminopyridin-3-yl)-N-((7-methoxy-5-(5-(piperazine-1-carbonyl)pyrimidin-2-yl)benzofuran-2-yl)methyl)acrylamide] | – | – | – | > 10000 | 100 to 5000 | 100 to 5000
Nc1ccc(/C=C/C(=O)NCc2cc3cc(-c4ccc(C(=O)N5CCOCC5)cn4)cc(-c4ccc(F)cc4)c3o2)cn1 [Compound 568, (E)-3-(6-aminopyridin-3-yl)-N-((7-(4-fluorophenyl)-5-(5-(morpholine-4-carbonyl)pyridin-2-yl)benzofuran-2-yl)methyl)acrylamide] | – | – | – | 100 to 5000 | < 100 | < 100
O=C(/C=C/c1cccnc1)NCc1cc2cc(-c3ccc(C(=O)N4CCC(F)(F)CC4)cn3)cc(-c3cc4ccccc4o3)c2o1 [Compound 721, (E)-N-((5′-(5-(4,4-difluoropiperidine-1-carbonyl)pyridin-2-yl)-[2,7′-bibenzofuran]-2′-yl)methyl)-3-(pyridin-3-yl)acrylamide] | < 100 | < 100 | < 100 | – | – | –
Nc1ccc(/C=C/C(=O)NCc2cc3cc(-c4ccc(C(=S)N5CCC(F)(F)CC5)cc4)cc(-c4ccncc4)c3o2)cn1 [Compound 705, (E)-3-(6-aminopyridin-3-yl)-N-((5-(4-(4,4-difluoropiperidine-1-carbonothioyl)phenyl)-7-(pyridin-4-yl)benzofuran-2-yl)methyl)acrylamide] | 100 to 5000 | < 100 | < 100 | – | – | –
Nc1ccc(/C=C/C(=O)NCc2cc3cc(-c4ncc(C(=O)N5CCOCC5)cn4)cc(Cl)c3o2)cn1 [Compound 583, (E)-3-(6-aminopyridin-3-yl)-N-((7-chloro-5-(5-(morpholine-4-carbonyl)pyrimidin-2-yl)benzofuran-2-yl)methyl)acrylamide] | – | – | – | > 10000 | 100 to 5000 | 100 to 5000
Nc1ccc(/C=C/C(=O)NCc2cc3cc(-c4ccc(C(=O)N5CCNCC5)cn4)cc(C(F)(F)F)c3o2)cn1 [Compound 577, (E)-3-(6-aminopyridin-3-yl)-N-((5-(5-(piperazine-1-carbonyl)pyridin-2-yl)-7-(trifluoromethyl)benzofuran-2-yl)methyl)acrylamide] | – | – | – | > 10000 | < 100 | < 100
Nc1ccc(/C=C/C(=O)NCc2cc3cc(-c4ccc(C(=O)N5CCC[C@H]5C(F)(F)F)cn4)cc(C(F)(F)F)c3o2)cn1 [Compound 622, (S,E)-3-(6-aminopyridin-3-yl)-N-((7-(trifluoromethyl)-5-(5-(2-(trifluoromethyl)pyrrolidine-1-carbonyl)pyridin-2-yl)benzofuran-2-yl)methyl)acrylamide] | – | – | – | > 10000 | > 10000 | 5000 to 10000
Nc1ccc(/C=C/C(=O)NCc2cc3cc(-c4ccc(C(=O)N5CCC(F)(F)CC5)cc4)cc(-c4cc(Cl)cc(Cl)c4)c3o2)cn1 [Compound 700, (E)-3-(6-aminopyridin-3-yl)-N-((7-(3,5-dichlorophenyl)-5-(4-(4,4-difluoropiperidine-1-carbonyl)phenyl)benzofuran-2-yl)methyl)acrylamide] | 100 to 5000 | < 100 | < 100 | – | – | –
